Read-outs that look alike come from different tables or passages of the source.
Columns and labels:
SR = assay: NCI 60 five dose screen
NCI-H522 (NSCLC) = assay: NCI 60 one dose screen; assay type: cell-based, human; conditions: Non-small Cell Lung Cancer
[1] = system: 60 different human tumor cell lines; conditions: five dose
HCT-15 (Colon Cancer) = assay: NCI 60 one dose screen; assay type: cell-based, human
SF-539 = assay: NCI 60 one dose screen; assay type: cell-based, human; conditions: one dose; CNS Cancer; SF-539
RPMI-8226 = assay: NCI 60 five dose screen
[2] = system: 60 different human tumor cell lines; assay: NCI Development Therapeutics Program 60 cell line screen, one dose; assay type: cell-based
glioblastoma (SF-295) = assay: NCI 60 five dose screen

Work on `C[C@]12CC[C@H]3[C@@H](CC=C4c5sc(Nc6ccccc6)nc5CC[C@@]43C)[C@@H]1CC[C@@H]2O` [IIIa.10, (1S,2R,13R,14S,17S,18S)-7-anilino-2,18-dimethyl-8-thia-6-azapentacyclo[11.7.0.02,10.05,9.014,18]icosa-5(9),6,10-trien-17-ol] yielded a GI50 (SR; Homo sapiens, SR) of 241 nM, a CC50 (SR; Homo sapiens, SR, read-out: LC50) of over 100000 nM and a TGI (SR; SR (Leukemia), five dose) of 6.10E−6. The “Growth Percent” value (NCI-H522 (NSCLC)) was 25.77%, the TGI ([1]; 786-0 (Renal Cancer)) was 3.30E−6 and the TGI ([1]; A498 (Renal Cancer)) was 5.66E−6. The TGI ([1]; A549/ATCC (Non-small Cell Lung Cancer)) was 6.02E−6, the TGI ([1]; ACHN (Renal Cancer)) was 3.25E−6 and the TGI ([1]; BT-549 (Breast Cancer)) was 4.31E−6. For the same molecule, the TGI ([1]; CAKI-1 (Renal Cancer)) was 5.68E−6, the TGI ([1]; CCRF-CEM (Leukemia)) was 2.71E−5 and the TGI ([1]; COLO 205 (Colon Cancer)) was 5.61E−6. For the same molecule, the TGI ([1]; DU-145 (Prostate Cancer)) was 3.62E−6, the TGI ([1]; EKVX (Non-small Cell Lung Cancer)) was 9.26E−6 and the TGI ([1]; HCC-2998 (Colon Cancer)) was 3.56E−6. The TGI ([1]; HCT-15 (Colon Cancer)) was 5.15E−6, the TGI ([1]; HCT-116 (Colon Cancer)) was 3.01E−6 and the TGI ([1]; HL-60(TB) (Leukemia)) was 6.87E−6. The TGI ([1]; HOP-62 (Non-small Cell Lung Cancer)) was 6.54E−6, the TGI ([1]; HOP-92 (Non-small Cell Lung Cancer)) was 6.77E−6 and the TGI ([1]; HS 578T (Breast Cancer)) was 1.72E−5. The TGI ([1]; HT29 (Colon Cancer)) was 4.45E−6, the TGI ([1]; IGROV1 (Ovarian Cancer)) was 7.85E−6 and the TGI ([1]; K-562 (Leukemia)) was 1.26E−5. The TGI ([1]; KM12 (Colon Cancer)) was 3.12E−6, the TGI ([1]; LOX IMVI (Melanoma)) was 2.77E−6 and the TGI ([1]; M14 (Melanoma)) was 4.27E−6. For the same molecule, the TGI ([1]; MALME-3M (Melanoma)) was 5.89E−6, the TGI ([1]; MCF7 (Breast Cancer)) was 4.73E−6 and the TGI ([1]; MDA-MB-231/ATCC (Breast Cancer)) was 4.63E−6. It also gave a TGI ([1]; MDA-MB-435 (Melanoma)) of 7.03E−6, a TGI ([1]; MDA-MB-468 (Breast Cancer)) of 3.38E−6 and a TGI ([1]; MOLT-4 (Leukemia)) of 8.07E−6. For the same molecule, the TGI ([1]; NCI-H23 (Non-small Cell Lung Cancer)) was 5.04E−6, the TGI ([1]; NCI-H226 (Non-small Cell Lung Cancer)) was 5.57E−6 and the TGI ([1]; NCI-H322M (Non-small Cell Lung Cancer)) was 1.11E−5. It also gave a TGI ([1]; NCI-H460 (Non-small Cell Lung Cancer)) of 4.04E−6, a TGI ([1]; NCI-H522 (Non-small Cell Lung Cancer)) of 4.50E−6 and a TGI ([1]; NCI/ADR-RES (Ovarian Cancer)) of 9.17E−5. For the same molecule, the TGI ([1]; OVCAR-3 (Ovarian Cancer)) was 2.62E−6, the TGI ([1]; OVCAR-4 (Ovarian Cancer)) was 1.54E−5 and the TGI ([1]; OVCAR-5 (Ovarian Cancer)) was 7.86E−6. The TGI ([1]; OVCAR-8 (Ovarian Cancer)) was 1.49E−5, the TGI ([1]; PC-3 (Prostate Cancer)) was 5.84E−6 and the TGI ([1]; RXF 393 (Renal Cancer)) was 2.28E−6. The TGI ([1]; SF-268 (CNS Cancer)) was 3.32E−6, the TGI ([1]; SK-MEL-2 (Melanoma)) was 5.64E−6 and the TGI ([1]; SK-MEL-5 (Melanoma)) was 3.41E−6. The TGI ([1]; SK-MEL-28 (Melanoma)) was 3.99E−6, the TGI ([1]; SK-OV-3 (Ovarian Cancer)) was 1.79E−5 and the TGI ([1]; SN12C (Renal Cancer)) was 3.28E−6. For the same molecule, the TGI ([1]; SNB-19 (CNS Cancer)) was 3.77E−6, the TGI ([1]; SNB-75 (CNS Cancer)) was 3.05E−6 and the TGI ([1]; SW-620 (Colon Cancer)) was 5.36E−6. The TGI ([1]; TK-10 (Renal Cancer)) was 6.63E−6, the TGI ([1]; U251 (CNS Cancer)) was 2.79E−6 and the TGI ([1]; UACC-62 (Melanoma)) was 3.96E−6. The TGI ([1]; UACC-257 (Melanoma)) was 6.68E−6, the TGI ([1]; UO-31 (Renal Cancer)) was 3.05E−6 and the “Growth Percent” value (HCT-15 (Colon Cancer)) was −30.18%. For the same molecule, the “Growth Percent” value (SF-539) was −34.31%, the GI50 (RPMI-8226; Homo sapiens, RPMI-8226) was 465 nM and the CC50 (RPMI-8226; Homo sapiens, RPMI-8226, read-out: LC50) was over 100000 nM. The TGI (RPMI-8226; RPMI-8226 (Leukemia), five dose) was 2.47E−6, the “Growth Percent” value ([2]; Breast Cancer, BT-549) was 19.16% and the “Growth Percent” value ([2]; Breast Cancer, HS 578T) was 3.65%. For the same molecule, the “Growth Percent” value ([2]; Breast Cancer, MCF7) was 29.18%, the “Growth Percent” value ([2]; Breast Cancer, MDA-MB-231/ATCC) was 35.75% and the “Growth Percent” value ([2]; Breast Cancer, MDA-MB-468) was −1.00%. The “Growth Percent” value ([2]; Breast Cancer, T-47D) was 16.35%, the “Growth Percent” value ([2]; CNS Cancer, SF-268) was 9.68% and the “Growth Percent” value ([2]; CNS Cancer, SNB-19) was 26.54%. The “Growth Percent” value ([2]; CNS Cancer, SNB-75) was −5.43%, the “Growth Percent” value ([2]; CNS Cancer, U251) was −30.05% and the “Growth Percent” value ([2]; Colon Cancer, COLO 205) was 57.13%. For the same molecule, the “Growth Percent” value ([2]; Colon Cancer, HCC-2998) was 98.16%, the “Growth Percent” value ([2]; Colon Cancer, HCT-116) was −81.48% and the “Growth Percent” value ([2]; Colon Cancer, HT29) was −38.50%. For the same molecule, the “Growth Percent” value ([2]; Colon Cancer, KM12) was 15.64%, the “Growth Percent” value ([2]; Colon Cancer, SW-620) was −19.44% and the “Growth Percent” value ([2]; Leukemia, CCRF-CEM) was 0.74%. The “Growth Percent” value ([2]; Leukemia, HL-60(TB)) was 15.69%, the “Growth Percent” value ([2]; Leukemia, K-562) was 4.96% and the “Growth Percent” value ([2]; Leukemia, MOLT-4) was 6.79%. The “Growth Percent” value ([2]; Leukemia, RPMI-8226) was −32.33%, the “Growth Percent” value ([2]; Leukemia, SR) was 8.06% and the “Growth Percent” value ([2]; Melanoma, LOX IMVI) was −81.48%. For the same molecule, the “Growth Percent” value ([2]; Melanoma, M14) was 53.44%, the “Growth Percent” value ([2]; Melanoma, MALME-3M) was 71.16% and the “Growth Percent” value ([2]; Melanoma, MDA-MB-435) was 3.47%. For the same molecule, the “Growth Percent” value ([2]; Melanoma, SK-MEL-2) was 51.68%, the “Growth Percent” value ([2]; Melanoma, SK-MEL-5) was 34.54% and the “Growth Percent” value ([2]; Melanoma, SK-MEL-28) was 27.28%. The “Growth Percent” value ([2]; Melanoma, UACC-62) was 39.84%, the “Growth Percent” value ([2]; Melanoma, UACC-257) was 69.33% and the “Growth Percent” value ([2]; Non-small Cell Lung Cancer, A549/ATCC) was 57.08%. For the same molecule, the “Growth Percent” value ([2]; Non-small Cell Lung Cancer, EKVX) was 73.21%, the “Growth Percent” value ([2]; Non-small Cell Lung Cancer, HOP-62) was 34.18% and the “Growth Percent” value ([2]; Non-small Cell Lung Cancer, HOP-92) was 103.92%. For the same molecule, the “Growth Percent” value ([2]; Non-small Cell Lung Cancer, NCI-H23) was 67.34%, the “Growth Percent” value ([2]; Non-small Cell Lung Cancer, NCI-H226) was 63.92% and the “Growth Percent” value ([2]; Non-small Cell Lung Cancer, NCI-H322M) was 78.38%. The “Growth Percent” value ([2]; Non-small Cell Lung Cancer, NCI-H460) was 6.06%, the “Growth Percent” value ([2]; Ovarian Cancer, IGROV1) was 11.15% and the “Growth Percent” value ([2]; Ovarian Cancer, NCI/ADR-RES) was 36.29%. For the same molecule, the “Growth Percent” value ([2]; Ovarian Cancer, OVCAR-3) was −31.62%, the “Growth Percent” value ([2]; Ovarian Cancer, OVCAR-4) was 64.10% and the “Growth Percent” value ([2]; Ovarian Cancer, OVCAR-5) was 92.21%. The “Growth Percent” value ([2]; Ovarian Cancer, OVCAR-8) was −8.95%, the “Growth Percent” value ([2]; Ovarian Cancer, SK-OV-3) was 89.65% and the “Growth Percent” value ([2]; Prostate Cancer, DU-145) was 14.25%. For the same molecule, the “Growth Percent” value ([2]; Prostate Cancer, PC-3) was 39.21%, the “Growth Percent” value ([2]; Renal Cancer, 786-0) was −49.68% and the “Growth Percent” value ([2]; Renal Cancer, ACHN) was 36.78%. The “Growth Percent” value ([2]; Renal Cancer, CAKI-1) was 49.02%, the “Growth Percent” value ([2]; Renal Cancer, RXF 393) was −32.33% and the “Growth Percent” value ([2]; Renal Cancer, SN12C) was 10.11%. The “Growth Percent” value ([2]; Renal Cancer, TK-10) was 65.01%, the “Growth Percent” value ([2]; Renal Cancer, UO-31) was 26.06% and the GI50 (glioblastoma (SF-295); Homo sapiens, SF-295) was 1060 nM. The CC50 (glioblastoma (SF-295); Homo sapiens, SF-295, read-out: LC50) was 8380 nM and the TGI (glioblastoma (SF-295); SF-295 (CNS Cancer), five dose) was 2.98E−6.
